Laboratory results taken from patent US8198098B2, “Optical measurement method for determining the pH of a medium using ageladine A as a fluorescent pH indicator” (Stiftung Alfred-Wegener-Institut fuer Polar-und …, priority 2007, dated 2012).
“Also recorded” adds a separate entry of the source.

Key:
[1] = detectable pH range of the fluorescent pH indicator; taken from probes.invitrogen.com handbook table; cited from earlier work
[2] = system: PC-12 cells; assay: staining of cells with ageladine A and measurement of intracellular pH; format: cell-based, rat; settings: PC-12 cells incubated with ageladine A, excitation 380 nm
Protocol: FIGS. 2A, 2B show images, at 400-times magnification, of cells (PC-12 cells, rat, deposited at DSMZ) incubated with ageladine A and stained by means of the same. Excitation took place using UV light with a wavelength of 380 nm.
The fluorescence ratio value (340 nm/380 nm) is plotted over time (time in s). The various pHs of the buffer solution are marked as parameters on the graph. It can clearly be recognized that the fluorescence emission follows the extracellular increase of the pH of the solution in a wide range (pH6.5 to pH3). The change of the intracellular pH is only a few tenths around pH7, as a result of which a very high measurement resolution of the pH indicator results.

[3] = fluorescence intensity of ageladine A as a function of the pH of the solution; format: physicochemical
From the text: The optical measurement method according to an embodiment of the present invention includes an alternative fluorescent pH indicator based on ageladine A. Ageladine A is a known natural marine substance in the form of a pyrrole-imidazole alkaloid which has heretofore been used exclusively for medical purposes. Ageladine A can be obtained both from marine sponges and produced synthetically. It is therefore readily possible, by means of the total syntheses described, to prepare large quantities of ageladine A without having to have recourse to marine sponges. […] When using ageladine A as a fluorescent pH indicator, pH changes of the medium to be investigated between pH4 and pH9 can be reliably optically indicated by means of a changeable fluorescence intensity in such a manner that the emitted fluorescence intensity increases as the pH falls. […] Advantageously, samples that have been taken (in vitro), but also living cells, tissue and entire organisms (in vivo) can be incubated with ageladine A as fluorescent pH indicator and stained in this manner by means of the fluorescence in the green range. This enables measurements of the pH in vivo and in vitro in a wide range and thus the detection of acidic tissue in organisms due to its fluorescence properties. The fluorescence in the green range increases markedly as the pH falls. […] The fluorescence intensity was measured at 510 nm. […]

[4] = system: shrimp (Palaemonetes argentinus); assay: in-vivo staining of a living organism with ageladine A
From the text: The green curve (lowest straight curve) indicates fluorescence intensity values within the buffer solution outside of the shrimp, the red and blue curves (middle and upper curved curves) indicate fluorescence intensity values within the shrimp and thus, in a simple manner, easily recognizable and detectable acidic constituents of the shrimp.

| stability of fluorescence under UV irradiation ([3]; despite UV irradiation) | Structure (SMILES) | PH RANGE [1] | staining of cells [2] | stability of the stainings ([3]; cells, tissue, organisms incubated with ageladine A) | penetration into tissue ([4]; intact, living organisms, on account of lipophilic structure (bromination)) | in-vivo staining of tissue ([4]; shrimp incubated with ageladine A, irradiated with UV light) |
| --- | --- | --- | --- | --- | --- | --- |
|  | O=c1c2cccc3c(NCCN4CCOCC4)ccc(c32)c2nc3ccccc3n12 [LysoSensor Green DND-189] | 4.5-6.0 |  |  |  |  |
|  | O=S(=O)([O-])c1cc(O)c2ccc3c(S(=O)(=O)[O-])cc(S(=O)(=O)[O-])c4ccc1c2c34.[Na+].[Na+].[Na+] [HPTS (pyranine), pyranine] | 7.0-8.0 |  |  |  |  |
| stable for hours | Nc1nc2ccnc(-c3cc(Br)c(Br)[nH]3)c2[nH]1 [ageladine A] |  | stained | stable over hours to days; also recorded: last for at least a plurality of days | penetrates very quickly and far into the tissue | acidic structures (mouth-digestive region) in the shrimp were stained |
